Laboratory results: US20240376113A1 (Volastra Therapeutics, Inc., priority 2020, published 2024)
Read-outs that look alike come from different tables or passages of the source.

Key:
[1] = biological target: ENPP1 on MDA-MB-231 cells (Homo sapiens (Human), UniProt P22413); test: Inhibition of ENPP1 hydrolysis of AMP p-nitrophenyl ester on MDA-MB-231 cells (Assay 2); type: cell-based; settings: pNP-AMP 0.25 mM, MDA-MB-231 cells, 37° C. 3 h, KI,app from IC50 via Cheng/Prusoff
Description: Inhibition of ENPP1 Hydrolysis of AMP p-Nitrophenyl Ester on MDA-MB-231 Cells (Assay 2)
ENPP1 is normally expressed on the human metastatic breast cancer cell line MDA-MB-231. Hydrolysis of the p-nitrophenyl ester of AMP (pNP-AMP), an isostere of ATP, is selectively catalyzed by ENPP1 in the supernatant of MDA-MB-231 cell cultures. Inhibition of the hydrolysis of pNP-AMP by MDA-MB-231 at pH 7.4 and 37° C. is a good model of physiologically relevant activity of membrane-bound ENPP1 at disease-relevant expression levels.
MDA-MB-231 cells were harvested using TypLE Express Enzyme digestion and suspended in 100 μL of Leibovitz's L-15 Medium, 20% FBS, seeding the cells in a 96-well assay plate with 4.5×10^4 cells/well. Cells were incubated at 37 C with 1% CO2 for 24 h. In a separate dilution plate, 2× of top dose of compound was prepared in phenol-red free 1640 medium without FBS and then 1:3 serial diluted in the same medium. The cell culture medium of L15 medium was aspirated carefully and cells were washed with PBS once, and 50 μL per well of test compound or DMSO blank are added to the assay plate. Substrate mix (50 μL; 0.5 mM pNP-AMP in phenol-red free 1640 media without FBS) was added for a pNP-AMP final concentration of 0.25 mM. The system was incubated at 37° C. for 3 h.

ENPP-1 ECD = ENPP-1 ECD (Homo sapiens (Human), UniProt P22413); test: Inhibition of ENPP1 hydrolysis of 2′,3′-cGAMP (Assay 1); settings: AMP-Glo luminescence, KI from IC50 via Cheng/Prusoff
Description: Test compounds were plated in a 3× dilution scheme in a 384 well plate.

[2] = read-out: Assay 2 KI,app values (class)
[3] = Assay 1 KI values (class), 2,3-cGAMP 24 μM
[4] = read-out: Assay 1 KI values (class), 2,3-cGAMP 24 μM
[5] = read-out: Assay 1 KI, 2,3-cGAMP 24 μM

ENPP1 on MDA-MB-231 cells, sequence (P22413 whole entry): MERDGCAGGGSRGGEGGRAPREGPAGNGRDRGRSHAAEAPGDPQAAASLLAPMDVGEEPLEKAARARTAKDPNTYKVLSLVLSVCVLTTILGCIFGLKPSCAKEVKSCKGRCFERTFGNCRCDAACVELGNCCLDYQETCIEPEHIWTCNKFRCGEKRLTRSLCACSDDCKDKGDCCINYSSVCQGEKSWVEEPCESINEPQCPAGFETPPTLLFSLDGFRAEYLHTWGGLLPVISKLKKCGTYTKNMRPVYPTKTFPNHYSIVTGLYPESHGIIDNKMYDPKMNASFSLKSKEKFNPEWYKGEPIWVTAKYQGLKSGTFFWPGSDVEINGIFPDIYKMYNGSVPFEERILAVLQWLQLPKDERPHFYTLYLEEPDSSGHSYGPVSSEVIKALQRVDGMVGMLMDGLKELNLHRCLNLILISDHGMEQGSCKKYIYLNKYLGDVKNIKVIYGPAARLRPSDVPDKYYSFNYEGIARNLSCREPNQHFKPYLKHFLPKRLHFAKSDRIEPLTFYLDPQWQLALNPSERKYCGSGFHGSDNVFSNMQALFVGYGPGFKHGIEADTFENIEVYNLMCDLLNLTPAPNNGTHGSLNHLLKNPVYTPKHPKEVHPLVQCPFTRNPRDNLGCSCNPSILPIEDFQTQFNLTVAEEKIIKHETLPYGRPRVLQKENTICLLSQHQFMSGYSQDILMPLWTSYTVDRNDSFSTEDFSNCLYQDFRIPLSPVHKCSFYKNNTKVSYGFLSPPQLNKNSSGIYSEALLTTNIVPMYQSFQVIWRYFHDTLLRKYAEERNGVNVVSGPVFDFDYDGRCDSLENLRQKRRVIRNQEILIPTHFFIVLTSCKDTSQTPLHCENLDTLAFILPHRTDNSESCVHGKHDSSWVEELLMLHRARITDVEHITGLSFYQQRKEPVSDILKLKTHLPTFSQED
ENPP-1 ECD, sequence (P22413 98-925): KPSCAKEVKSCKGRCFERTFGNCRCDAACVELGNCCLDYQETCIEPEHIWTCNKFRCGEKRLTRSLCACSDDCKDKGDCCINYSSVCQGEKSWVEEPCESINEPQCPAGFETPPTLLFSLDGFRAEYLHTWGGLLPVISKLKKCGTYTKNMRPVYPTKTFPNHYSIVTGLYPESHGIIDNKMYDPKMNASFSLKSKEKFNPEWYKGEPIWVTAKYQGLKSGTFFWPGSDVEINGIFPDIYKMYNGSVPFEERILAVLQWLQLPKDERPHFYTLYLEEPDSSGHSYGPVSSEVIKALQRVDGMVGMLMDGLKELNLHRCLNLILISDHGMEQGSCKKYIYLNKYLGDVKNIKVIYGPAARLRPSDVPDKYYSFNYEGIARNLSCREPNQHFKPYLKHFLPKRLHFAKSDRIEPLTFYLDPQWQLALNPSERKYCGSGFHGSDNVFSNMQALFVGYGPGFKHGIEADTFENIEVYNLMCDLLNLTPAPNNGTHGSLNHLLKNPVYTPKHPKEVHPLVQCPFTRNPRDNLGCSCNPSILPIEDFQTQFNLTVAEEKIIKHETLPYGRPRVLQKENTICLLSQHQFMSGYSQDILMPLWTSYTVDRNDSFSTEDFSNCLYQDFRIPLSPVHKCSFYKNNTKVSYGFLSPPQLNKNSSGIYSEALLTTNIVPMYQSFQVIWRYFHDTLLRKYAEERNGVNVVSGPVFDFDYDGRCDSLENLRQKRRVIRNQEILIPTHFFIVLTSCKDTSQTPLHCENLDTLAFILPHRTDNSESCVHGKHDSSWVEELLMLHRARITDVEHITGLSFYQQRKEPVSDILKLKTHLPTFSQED

SMILES	Ki ([1]; read-out: Assay 2 KI, app)	Ki [1, 2]	Ki (ENPP-1 ECD; [3])	Ki (ENPP-1 ECD; [4])	Ki (ENPP-1 ECD; [5])
CN(C)c1c(Cc2ccc(S(C)(=N)=O)cc2)c(C2CC2)nc2ncnn12 (centres unmarked) [Compound 53, (4-{[5-cyclopropyl-7-(dimethylamino)-[1,2,4]triazolo[1,5-a]pyrimidin-6-yl]methyl}phenyl)(imino)methyl-λ^6-sulfanone]	1.11 nM	< 10 nM	< 3 nM	–	–
CS(=N)(=O)c1ccc(Cc2cnc3ncnn3c2N2CCCC2)cc1 (centres unmarked) [Compound 54]	74.7 nM	> 10 nM	–	< 3 nM	1.71 nM
Cc1nc2ncnn2c(N(C)C)c1Cc1ccc(S(=N)(=O)Cc2ccccc2)cc1 (centres unmarked) [Compound 55, benzyl(4-((7-(dimethylamino)-5-methyl-[1,2,4]triazolo[1,5-a]pyrimidin-6-yl)methyl)phenyl)(imino)-λ^6-sulfanone]	1.65 nM	–	< 3 nM	–	–
CCS(=N)(=O)c1ccc(Cc2c(C)nc3ncnn3c2N(C)C)cc1 (centres unmarked) [Compound 57, (4-{[7-(dimethylamino)-5-methyl-[1,2,4]triazolo[1,5-a]pyrimidin-6-yl]methyl}phenyl)(ethyl)imino-λ^6-sulfanone]	9.59 nM	< 10 nM	< 3 nM	–	–
Cc1nc2ncnn2c(N(C)C)c1Cc1ccc(S(=N)(=O)CCO)cc1 (centres unmarked) [Compound 59, (4-{[7-(dimethylamino)-5-methyl-[1,2,4]triazolo[1,5-a]pyrimidin-6-yl]methyl}phenyl)(2-hydroxyethyl)imino-λ^6-sulfanone]	11.5 nM	> 10 nM	< 3 nM	–	–
COCCS(=N)(=O)c1ccc(Cc2c(C)nc3ncnn3c2N(C)C)cc1 (centres unmarked) [Compound 60, (4-{[7-(dimethylamino)-5-methyl-[1,2,4]triazolo[1,5-a]pyrimidin-6-yl]methyl}phenyl)(imino)(2-methoxyethyl)-λ^6-sulfanone]	6.25 nM	< 10 nM	< 3 nM	–	0.0862 nM
CC(=O)NCCS(=N)(=O)c1ccc(Cc2c(C)nc3ncnn3c2N(C)C)cc1 (centres unmarked) [Compound 64, N-{2-[(4-{[7-(dimethylamino)-5-methyl-[1,2,4]triazolo[1,5-a]pyrimidin-6-yl]methyl}phenyl)(imino)oxo-λ^6-sulfanyl]ethyl}acetamide]	4.41 nM	< 10 nM	< 3 nM	–	0.0667 nM
Cc1nc2ncnn2c(N(C)C)c1Cc1ccc(S(=N)(=O)CCC(=O)O)cc1 (centres unmarked) [Compound 72, 3-[(4-{[7-(dimethylamino)-5-methyl-[1,2,4]triazolo[1,5-a]pyrimidin-6-yl]methyl}phenyl)(imino)oxo-λ^6-sulfanyl]propanoic acid]	0.769 nM	< 10 nM	< 3 nM	–	0.0285 nM
Cc1nc2ncnn2c(N(C)C)c1Cc1ccc([S@@](=N)(=O)CCC(=O)O)cc1 [Compound 72a]	0.505 nM	–	–	–	0.00881 nM
Cc1nc2ncnn2c(N(C)C)c1Cc1ccc(S(=N)(=O)CCN)cc1 (centres unmarked) [Compound 73, (2-aminoethyl)(4-{[7-(dimethylamino)-5-methyl-[1,2,4]triazolo[1,5-a]pyrimidin-6-yl]methyl}phenyl)imino-λ^6-sulfanone]	7.7 nM	< 10 nM	< 3 nM	–	–
CN(C)c1c(Cc2ccc(S(C)(=N)=O)cc2)c(Cl)nc2ncnn12 (centres unmarked) [Compound 74, (4-{[5-chloro-7-(dimethylamino)-[1,2,4]triazolo[1,5-a]pyrimidin-6-yl]methyl}phenyl)(imino)methyl-λ^6-sulfanone]	7.13 nM	< 10 nM	< 3 nM	–	–
CN(C)c1c(Cc2ccc([S@@](C)(=N)=O)cc2)c(Cl)nc2ncnn12 [Compound 74a]	1.34 nM	< 10 nM	–	< 3 nM	0.0523 nM
Cc1cc2ncnn2c(N2CCCC2)c1Cc1ccc(S(C)(=N)=O)cc1 (centres unmarked) [Compound 75, imino(methyl)(4-{[7-methyl-5-(pyrrolidin-1-yl)-[1,2,4]triazolo[1,5-a]pyridin-6-yl]methyl}phenyl)-λ^6-sulfanone]	36.7 nM	> 10 nM	< 3 nM	–	–
Cc1cc2ncnn2c(N2CCCCC2)c1Cc1ccc(S(C)(=N)=O)cc1 (centres unmarked) [Compound 76, imino(methyl)(4-{[7-methyl-5-(piperidin-1-yl)-[1,2,4]triazolo[1,5-a]pyridin-6-yl]methyl}phenyl)-λ^6-sulfanone]	38.6 nM	> 10 nM	< 3 nM	–	–
CS(=N)(=O)c1ccc(Cc2c(Cl)nc3ncnn3c2N2CCCC2)cc1 (centres unmarked) [Compound 78, (4-{[5-chloro-7-(pyrrolidin-1-yl)-[1,2,4]triazolo[1,5-a]pyrimidin-6-yl]methyl}phenyl)(imino)methyl-λ^6-sulfanone]	24.1 nM	> 10 nM	< 3 nM	–	–
CN(C)c1c(Cc2ccc(S(C)(=N)=O)cc2)c(C#N)nc2ncnn12 (centres unmarked) [Compound 79, 7-(dimethylamino)-6-({4-[imino(methyl)oxo-λ^6-sulfanyl]phenyl}methyl)-[1,2,4]triazolo[1,5-a]pyrimidine-5-carbonitrile]	74.4 nM	> 10 nM	< 3 nM	–	2.86 nM
Cc1c(Cc2ccc(S(C)(=N)=O)cc2)c(N(C)C)n2ccnc2c1C#N (centres unmarked) [Compound 80, 5-(dimethylamino)-6-({4-[imino(methyl)oxo-λ^6-sulfanyl]phenyl}methyl)-7-methylimidazo[1,2-a]pyridine-8-carbonitrile]	2.54 nM	< 10 nM	< 3 nM	–	0.0443 nM
Cc1c(Cc2ccc([S@@](C)(=N)=O)cc2)c(N(C)C)n2ccnc2c1C#N [Compound 80a]	0.589 nM	< 10 nM	–	< 3 nM	0.016 nM
Cc1nc2ncnn2c(N2CCCC2)c1Cc1ccc(B(O)O)cc1 [Compound 81, (4-{[5-methyl-7-(pyrrolidin-1-yl)-[1,2,4]triazolo[1,5-a]pyrimidin-6-yl]methyl}phenyl)boronic acid]	13.5 nM	> 10 nM	< 3 nM	–	0.817 nM
Cc1nc2ncnn2c(N2CCCC2)c1Cc1ccc(C(=O)NO)cc1 [Compound 82, N-hydroxy-4-{[5-methyl-7-(pyrrolidin-1-yl)-[1,2,4]triazolo[1,5-a]pyrimidin-6-yl]methyl}benzamide]	69.9 nM	> 10 nM	< 3 nM	–	1.16 nM
Cc1c(Cc2ccc(S(C)(=N)=O)cc2)c(N(C)C)n2ncnc2c1C#N (centres unmarked) [Compound 85, 5-(dimethylamino)-6-({4-[imino(methyl)oxo-λ^6-sulfanyl]phenyl}methyl)-7-methyl-[1,2,4]triazolo[1,5-a]pyridine-8-carbonitrile]	0.724 nM	–	–	–	0.0287 nM
Cc1cc2ncnn2c(N(C)C)c1Cc1ccc(S(=N)(=O)CCC(=O)O)cc1 (centres unmarked) [Compound 87, 3-[(4-{[5-(dimethylamino)-7-methyl-[1,2,4]triazolo[1,5-a]pyridin-6-yl]methyl}phenyl)(imino)oxo-λ^6-sulfanyl]propanoic acid]	0.447 nM	–	–	–	0.0184 nM
COc1nc2ncnn2c(N(C)C)c1Cc1ccc([S@@](C)(=N)=O)cc1 [Compound 88a]	0.222 nM	–	–	–	0.00586 nM
